Source: patent US20110152267A1, “Compositions and Methods for Treating Hyperproliferative Disorders” (Texas Tech University System, priority 2009, published 2011)

How the values were obtained:
Format in all cases: cell-based, human
[1] = test system: PC-3 prostate adenocarcinoma cell line; experiment: DIMSCAN cytotoxicity, fenretinide + L-threo-sphinganines 3:1 (Example B17)
Description: (§1) Cytotoxicity Assay—Once again, cytotoxicity is determined using the DIMSCAN assay system (R. Proffitt et al., Cytometry 24, 204-213 (1996); T. Frgala et al., Mol Cancer Ther. 6:886-97, 2007). The system employs digital imaging microscopy to quantify viable cells, which selectively accumulate fluorescein diacetate to become brightly fluorescent. The system is capable of measuring cytotoxicity over a 4-5 log dynamic range by quenching the residual fluorescence of dead and dying cells with eosin Y and quantifying the total fluorescence of viable cells using digital thresholding. Measured fluorescence is directly proportionate to the number of viable cells. A comparison of the total fluorescence of a drug-treated cell population to the fluorescence of a similar number of untreated cells yields a survival fraction. In brief, 2000 to 10,000 cells/well (depending on size and growth rates) are replicate plated into 60 wells of a 96-well tissue culture plate in 0.1 mL of whole medium and allowed to attach overnight. Drug(s) are then added in 0.05 mL of whole medium to the final concentrations indicated. Drugs (fenretinide, and various chain length L-threo-sphinganines) were tested both as single agents and in a 3:1 ratio of fenretinide:sphinganine. C18-L-threo-sphinganine, or “safingol,” was also tested and results shown for reference. There are 12 wells treated per drug concentration. Twelve wells receive drug vehicle-only to the appropriate final concentration and serve as controls for the plate. Cells are incubated for 96 hours at 37° C. in ambient air with 5% CO2. Fluorescein diacetate is then added to each well in 0.05 mL media to a final concentration of 8 microgram/mL. Cells are incubated for a further 15 minutes at 37° C. and 0.03 mL of 0.5% eosin Y is added to each well. Total fluorescence of viable cells is then measured by digital imaging microscopy. Results were graphed as the ratio of the fluoresecence of drug-treated wells to non-drug treated control wells (i.e., Survival Fraction). All tests were performed at least twice. Representative results are shown.
(§2) The Combination Index (CI) is a term to describe mathematical modeling of the pharmacologic effects on cytotoxicity (cell death) of two drugs in combination based. Cytotoxic “synergy” is defined as a cell death affect which is greater than would be expected from a simple product of the single agent cytotoxicities alone (i.e. an “additive” effect). By Chou-Talalay analysis, a CI<0.9 on a Fraction Affected (“Fa”, i.e. fraction of cells killed) indicates synergy, with smaller numbers indicating greater synergy; a CI of 0.9-1.1 signifies an additive or near-additive effect; and a CI>1.1 means the drug combination is antagonistic.
Fenretinide and L-threo-sphinganines tested in human prostate adenocarcinoma (prostate cancer) cell line, PC-3.

[2] = test system: T98G Glioblastoma multiforme cell line; experiment: DIMSCAN cytotoxicity, fenretinide + L-threo-sphinganines 3:1 (Example B6); conditions: 96 h
Description: as §1, §2
Fenretinide and L-threo-sphinganines tested in human Glioblastoma multiforme (brain cancer) cell line, T98G.

[3] = test system: RPMI-8226 Multiple Myeloma cell line; experiment: DIMSCAN cytotoxicity, fenretinide + L-threo-sphinganines 3:1 (Example B2); conditions: 96 h
Description: as §1, §2
Fenretinide and L-threo-sphinganines tested in human Multiple Myeloma (a cancer of the blood and bone marrow) cell line, RPMI-8226.

[4] = test system: U-266 Multiple Myeloma cell line; experiment: DIMSCAN cytotoxicity, fenretinide + L-threo-sphinganines 3:1 (Example B3); conditions: 96 h
Description: as §1, §2
Fenretinide and L-threo-sphinganines tested in human Multiple Myeloma (a cancer of the blood and bone marrow) cell line, U-266.

[5] = test system: PANC-1 pancreatic adenocarcinoma cell line; experiment: DIMSCAN cytotoxicity, fenretinide + L-threo-sphinganines 3:1 (Example B18)
Description: as §1, §2
Fenretinide and L-threo-sphinganines tested in human pancreatic adenocarcinoma (pancreas cancer) cell line, PANC-1.

[6] = test system: A-172 Glioblastoma multiforme cell line; experiment: DIMSCAN cytotoxicity, fenretinide + L-threo-sphinganines 3:1 (Example B4); set-up: key to CI (Combination Index): Chou-Talalay CI: <0.9 synergy, 0.9-1.1 additive, >1.1 antagonism; conditions: 96 h
Description: as §1, §2
Fenretinide and L-threo-sphinganines tested in human Glioblastoma multiforme (brain cancer) cell line, A-172.

[7] = test system: SJ-GBM2 Glioblastoma multiforme cell line; experiment: DIMSCAN cytotoxicity, fenretinide + L-threo-sphinganines 3:1 (Example B7); set-up: key to CI (Combination Index): Chou-Talalay CI: <0.9 synergy, 0.9-1.1 additive, >1.1 antagonism; conditions: 96 h
Description: as §1, §2
Fenretinide and L-threo-sphinganines tested in human Glioblastoma multiforme (brain cancer) cell line, SJ-GBM2.

[8] = test system: SJ-G2 Glioblastoma cell line; experiment: DIMSCAN cytotoxicity, fenretinide + L-threo-sphinganines 3:1 (Example B8); conditions: 96 h
Description: as §1, §2
Fenretinide and L-threo-sphinganines tested in human Glioblastoma (brain cancer) cell line, SJ-G2.

[9] = 4-HPR 1.5 μM + L-threo-sphinganine 0.5 μM
[10] = 4-HPR 3 μM + L-threo-sphinganine 1 μM
[11] = 4-HPR 6 μM + L-threo-sphinganine 2 μM
[12] = 4-HPR 9 μM + L-threo-sphinganine 3 μM

CCCCCCCCCCCCCCCCC[C@H](O)[C@@H](N)CO [C20, (2S,3S)-2-amino-1,3-icosanediol]
CI [1, 9]: 1.0
Fa [1, 9]: 0.217
CI [1, 10]: 1.1
Fa [1, 10]: 0.393
CI [1, 11]: 1.2
Fa [1, 11]: 0.620
CI [1, 12]: 0.5
Fa [1, 12]: 0.916
CI (Combination Index) [2, 9]: 2.4
Fa (fraction affected) [2, 9]: 0.397
CI (Combination Index) [2, 10]: 0.2
Fa (fraction affected) [2, 10]: 0.989
CI (Combination Index) [2, 11]: >0.1
Fa (fraction affected) [2, 11]: 1.000
CI (Combination Index) [2, 12]: >0.1
Fa (fraction affected) [2, 12]: 1.000
CI (Combination Index) [3, 9]: 1.0
Fa (fraction affected) [3, 9]: 0.583
CI (Combination Index) [3, 10]: 1.1
Fa (fraction affected) [3, 10]: 0.867
CI (Combination Index) [3, 11]: 0.9
Fa (fraction affected) [3, 11]: 0.996
CI (Combination Index) [3, 12]: 0.3
Fa (fraction affected) [3, 12]: 1
CI (Combination Index) [4, 9]: 1.2
Fa (fraction affected) [4, 9]: 0.259
CI (Combination Index) [4, 10]: 1.3
Fa (fraction affected) [4, 10]: 0.688
CI (Combination Index) [4, 11]: 0.4
Fa (fraction affected) [4, 11]: 0.999
CI (Combination Index) [4, 12]: >0.1
Fa (fraction affected) [4, 12]: 1.000
CI [5, 9]: 1.9
Fa [5, 9]: 0.136
CI [5, 10]: 1.9
Fa [5, 10]: 0.291
CI [5, 11]: 1.2
Fa [5, 11]: 0.653
CI [5, 12]: 0.1
Fa [5, 12]: 0.990
CI (Combination Index) [6, 9]: 2.8
Fa (fraction affected) [6, 9]: 0.039
CI (Combination Index) [6, 10]: 1.0
Fa (fraction affected) [6, 10]: 0.594
CI (Combination Index) [6, 11]: 0.6
Fa (fraction affected) [6, 11]: 0.983
CI (Combination Index) [6, 12]: >0.1
Fa (fraction affected) [6, 12]: 1.000
CI (Combination Index) [7, 9]: 0.5
Fa (fraction affected) [7, 9]: 0.055
CI (Combination Index) [7, 10]: 0.6
Fa (fraction affected) [7, 10]: 0.737
CI (Combination Index) [7, 11]: 0.7
Fa (fraction affected) [7, 11]: 0.998
CI (Combination Index) [7, 12]: 0.3
Fa (fraction affected) [7, 12]: 1.000
CI (Combination Index) [8, 9]: 0.9
Fa (fraction affected) [8, 9]: 0.408
CI (Combination Index) [8, 10]: 0.8
Fa (fraction affected) [8, 10]: 0.773
CI (Combination Index) [8, 11]: 1.1
Fa (fraction affected) [8, 11]: 0.896
CI (Combination Index) [8, 12]: 0.2
Fa (fraction affected) [8, 12]: 0.999
